Consider 1 molecule from US10328075B2, “Method of treatment and compounds for use therein” (Baker Heart and Diabetes Institute, priority 2015, dated 2019).

Test [1] deals with T1, hFPR1 (Homo sapiens, UniProt P21462).
T1 construct: expressed in transfected cells
T1 sequence (P21462 1-350): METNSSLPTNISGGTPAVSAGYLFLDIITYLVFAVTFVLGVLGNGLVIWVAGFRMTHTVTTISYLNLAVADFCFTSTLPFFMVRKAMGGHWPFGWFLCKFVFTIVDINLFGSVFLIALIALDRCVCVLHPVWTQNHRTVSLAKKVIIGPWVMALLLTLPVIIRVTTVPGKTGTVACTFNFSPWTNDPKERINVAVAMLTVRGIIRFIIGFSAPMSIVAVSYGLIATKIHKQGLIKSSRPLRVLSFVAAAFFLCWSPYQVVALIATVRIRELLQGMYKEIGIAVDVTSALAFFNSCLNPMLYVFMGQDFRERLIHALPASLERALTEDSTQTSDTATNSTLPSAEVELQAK
The experiment in a line: Akt1/2/3 (Ser473) phosphorylation in hFPR1-FlpIn-CHO cells. It is filed as cell-based. From the text:
(§1) cDNDA construct and generation of stable cell lines: cDNA in pcDNA3.1^+ encoding the human formyl peptide receptors (FPR) subtypes, hFPR1, hFPR2 and hFPR3 was obtained from Invitrogen. The sequences for 3 hFPR receptors were amplified by PCR and cloned into the Gateway entry vector, pDONR202™, using the BP clonase enzyme mix, according to the manufactures' instructions (Invitrogen Inc, Carlsbad, Calif., USA). All hFPR receptors constructs in pDONR201™ were subsequently transfected into the pEF5/FRT/V5/dest vector using the LR clonase enzyme mix (Invitrogen). Receptor constructs (pEF5/FRT/V5/dest) were used to transfect FIp-In CHO cells as described previously (Valant C et al., PNAS, 2014). Cells were selected using 500 μg/mL hydromycin to generate cell lines stably expressing each receptor construct. Cells were maintained and cultured in high glucose DMEM supplemented with 10% FBS, 16 mM HEPES and 500 μg/mL hydromycin at 37° C. under a humidified atmosphere containing 5% CO2.
(§2) In the various assays described below, cells were plated into 96-well transparent cell culture plates at 4×10^4 cells per well, cultured overnight in serum-free media at 37° C. in 5% CO2.
Measurement of Akt1/2/3 phosphorylation and Akt 1: The same lysate was used for measurement of Akt1/2/3 phosphorylation (Ser473) and Akt1 (Thr308). Cells were lysed in SureFire lysis buffer and transferred to 384-well opaque proxiplates. Under low-light conditions, a 1:10:40 (v:v:v) dilution of AlphaScreen acceptor beads:Surefire activation buffer:Surefire reaction buffer was prepared and the plate was incubated in the dark at RT for 2 h. Then, a 1:20 (v:v) dilution of AlphaScreen donor beads/dilution was prepared and incubated in the dark at RT for another 2 h, before the fluorescence signal was measured by used of a Fusion-α plate reader (PerkinElmer Life and Analytical Sciences) with standard AlphaScreen settings. Receptor mediated phosphorylation of Akt1/2/3 (Ser473) and Akt1 (Thr308) were determined using the AlphaScreen™ […] SureFire™ kit, as per as per manufacturer's instructions. Data were normalized to the maximal response elicited by 10% (v:v) FBS at the same time point.
(§3) Data analysis: All data were analysed using GraphPad Prism 6.0 (GraphPad Software, San Deigo, Calif., USA). Where appropriate, concentration-response curves were fitted to derive the maximal agonist effect (Emax), and the ligand potency estimate (pEC50), where Emax is the maximal possible response of the system (not the agonist), basal is the basal level of response in the absence of agonist, and pEC50 is the negative logarithm of the agonist concentration that gives a response halfway between Emax and basal.
(§4) In the present study, FIp-IN CHO cells and Gateway plasmid were obtained from Invitrogen Inc (Carlsbad, Calif., USA). The sequences for all 3 known human FPRs (hFPR1, hFPR2 and hFPR3) were amplified by PCR and cloned into the Gateway entry vector, pDONR202TM, using the BP clonase enzyme mix, according to the manufacturers' instructions. The hFPR pDONR201TM constructs were subsequently transfected into the pEF5/FRT/V5/dest vector using the LR clonase enzyme mix (Invitrogen). Receptor constructs (pEF5/FRT/V5/dest) were used to transfect FIp-IN CHO cells, as described previously (Valant et al. 2014). Cells were selected using 500 μg/mL hydromycin to generate cell lines stably expressing each human receptor construct. Cells were maintained and cultured in high glucose Dulbecco's modified eagle medium (DMEM) supplemented with 10% fetal bovine serum (FBS, from JRH Biosciences, Lenexa, Kans., USA) and 500 μg/mL hydromycin B (Invitrogen Inc) at 37° C. under a humidified atmosphere containing 5% CO2. Cell were plated into 96-well transparent cell culture plates at 4×10^4 cells per well, cultured overnight in serum-free media at 37° C. in 5% CO2.

Test [2] deals with T1, hFPR1. Briefly: Inhibition of forskolin-stimulated cAMP accumulation in hFPR1-FlpIn-CHO cells. It is filed as cell-based. Particulars: for Concentration-response profile on forskolin-stimulated cAMP accumulation at hFPR1: in words.
From the text: as §1, §2
cAMP Accumulation: CHO-hFPR1, -hFPR2 and -hFPR3 stable transfected cells were plated into 96-well plates and cultured overnight at 37° C. in 5% CO2. Cells were washed with PBS, and cultured overnight. […] Cells were lysed in detection buffer (dH2O, 0.3% Tween 20, 5 mM HEPES, 0.1% BSA). Lysates were transferred to a 384-well plate and mixtures of detection buffer/donor bead-conjugated anti-cAMP antibody and detection buffer: biotinylated cAMP: acceptor bead-conjugated streptavidin were added to the lysates according to the PerkinElmer cAMP Alphascreen protocol. Under low-light conditions, a 1:50 (v:v) dilution of AlphaScreen acceptor beads: stimulation buffer was prepared, 1:150 (v:v) dilution of donor beads and 50 nM biotinylated cAMP in detection buffer was prepared in a 384-well opaque optiplates. Plates were incubated in the dark at room temperature overnight before the fluorescence signal was measured by use of a Fusion-α plate reader (PerkinElmer Life and Analytical Sciences). Data were normalized to the response elicited by 10 μM forskolin at the same time point.
as §3, §4

[3] abbreviates: Table 8, normalized transduction coefficient, reference agonist Cmpd43.
Setting [4] is: Table 8, transduction coefficient.

As for `CC(C)C1C(NC(=O)Nc2ccc(Cl)cc2)C(=O)N(c2ccccc2)N1C` (centres unmarked) [BIDI-002], the Emax on hFPR1 [1] (Table 3, percentage of Akt1/2/3 phosphorylation elicited by 10% FBS, read-out: Emax (%), Akt 1/2/3 (Ser473), hFPR1-Flpln-CHO) was 13 ± 3%; at hFPR1 [1] (Table 8, percent of response elicited by 10% FBS, read-out: Emax, Akt 1/2/3 (Ser473) phosphorylation, hFPR1-Flpln-CHO) it was 13 ± 3%; on hFPR1 [2] (Table 4, percentage inhibition of forskolin-stimulated cAMP accumulation, read-out: Emax (%), inhibition to cAMP accumulation, hFPR1-Flpln-CHO), 27 ± 20%; at hFPR1 [2] (Table 8, percent inhibition of forskolin-induced cAMP accumulation, read-out: Emax, inhibition of cAMP accumulation, hFPR1-Flpln-CHO) it was 27 ± 20%. The EC50 at hFPR1 [1] (Table 3, read-out: pEC50, Akt 1/2/3 (Ser473), hFPR1-Flpln-CHO (converted)) is 87.1 nM; on hFPR1 [1] (Table 8, read-out: pEC50, Akt 1/2/3 (Ser473) phosphorylation, hFPR1-Flpln-CHO (converted)) it was 79.4 nM; at hFPR1 [2] (Table 4, read-out: pEC50, inhibition to cAMP accumulation, hFPR1-Flpln-CHO (converted)), 74.1 nM; on hFPR1 [2] (Table 8, read-out: pEC50, inhibition of cAMP accumulation, hFPR1-Flpln-CHO (converted)), 79.4 nM. In addition, the “ΔLog(τ/KA), Akt 1/2/3 (Ser473) phosphorylation, hFPR1-Flpln-CHO” value at hFPR1 [1] (setting [3]) was found to be 0.0. Besides, the “Log(τ/KA), Akt 1/2/3 (Ser473) phosphorylation, hFPR1-Flpln-CHO” value on hFPR1 [1] (setting [4]) worked out at 6.9 ± 0.3. The “ΔLog(τ/KA), inhibition of cAMP accumulation, hFPR1-Flpln-CHO” value on hFPR1 [2] (setting [3]) is on record as 0.0. In addition, the “Log(τ/KA), inhibition of cAMP accumulation, hFPR1-Flpln-CHO” value at hFPR1 [2] (setting [4]) was determined as 7.1 ± 0.3. The “Concentration-response profile on forskolin-stimulated cAMP accumulation at hFPR1” value is “bell-shaped curves” on hFPR1 [2] and “bi-phasic curve” at hFPR1 [2] (listed as Cmpd43).
